The record followed here is patent publication US20110207627A1, “EX VIVO THERAPEUTICS SCREENING OF LIVING BONE MARROW CELLS FOR MULTIPLE MYELOMA” (GEORGE MASON UNIVERSITY, priority 2008, published 2011).

This experiment relates to CD138+ cells and bone marrow cells (BMC). Kind of experiment: Ex vivo treatment of multiple myeloma bone marrow aspirates, reverse phase protein microarray, CD138+ cells compared with bone marrow cells. The experiment is classed as cell-based, human. As to conditions: female, treatment naive multiple myeloma patient; 4 hours ex vivo; IL-6 stimulated cells compared to IGF1R & Rapamycin combination (FIG. 3). The source says:
A workflow using protein kinase signal pathway mapping technology was developed for the ex vivo, short-term drug treatment of fresh, living human multiple myeloma (MM) bone marrow aspirate tumor cells, compared to non MM bone marrow cells for the same patient. The study sought a) to measure the signal pathway perturbations caused by the inhibitor/ligand treatment in individual baseline bone marrow aspirate samples, b) to correlate this with the susceptibility of the ex vivo living sample to apoptosis induction, within 4 hours, by a molecular targeted inhibitor which blocks this pathway, and c) to compare the relative sensitivity of tumor and non tumor bone marrow cells treated in admixture under identical conditions to identify predictive/prognostic protein-based biomarkers.
Human bone marrow aspirates (n=20) and clinical information were collected following an IRB approved protocol from patients providing informed consent. A portion of the aspirate that was not needed for pathological diagnosis was immediately fixed for baseline analysis and the remaining sample was separated into multiple aliquots for ex vivo treatment. […]
Reverse phase protein arrays were used to quantitatively map 60 to 75 signal pathway endpoints. The impact of each treatment was measured on the selected endpoint compared to the vehicle control. […]

“IL-6: cytokine used as exogenous ligand to stimulate cells”: the pro survival signaling entry is given as “Differential pro survival signaling”.
